Measurements reported in ChEMBL document CHEMBL4715932, “Positional Isomers of Biphenyl Antimicrobial Peptidomimetic Amphiphiles” (ACS Med Chem Lett, 2021).
Converted amounts (≈) assume the structure as drawn.

Experiments:
[1] = system: Escherichia coli; assay: Antimicrobial activity against Escherichia coli ATCC 25922 assessed as growth inhibition incubated for 18 hrs; assay type: functional
[2] = system: Acinetobacter baumannii; assay: Antimicrobial activity against Acinetobacter baumannii ATCC 19606 assessed as growth inhibition incubated for 18 hrs; assay type: functional
[3] = system: Pseudomonas aeruginosa; assay: Antimicrobial activity against Pseudomonas aeruginosa ATCC 27853 assessed as growth inhibition incubated for 18 hrs; assay type: functional
[4] = system: Escherichia coli; assay: Antibacterial activity against Escherichia coli ATCC 10418 assessed as inhibition of growth visually by CLSI method; assay type: functional
[5] = system: Klebsiella pneumoniae; assay: Antimicrobial activity against multidrug-resistant Klebsiella pneumoniae ATCC 700603 assessed as growth inhibition incubated for 18 hrs; assay type: functional
[6] = Cytotoxicity against human HEK-293 cells incubated for 23 hrs by CO-ADD method; assay type: cell-based, HEK293
[7] = Hemolytic activity in sheep RBC assessed as hemolysis at 50 microg/ml incubated for 2 hrs; assay type: ADME, cell-based, Ovis aries, Erythrocyte; conditions: red blood cells (erythrocytes), at 50 µg/mL, read-out: Activity
[8] = Cytotoxicity against human HEK-293 cells assessed as maximal inhibition at <= 32 ug/ml incubated for 23 hrs by CO-ADD method; assay type: cell-based, HEK293; conditions: dose <=32 µg/ml, read-out: Imax
[9] = system: Streptococcus pneumoniae; assay: Antibacterial activity against Streptococcus pneumoniae ATCC 49619 assessed as inhibition of growth visually by CLSI method; assay type: functional
[10] = Hemolytic activity in human RBC assessed as hemolysis incubated for 1 hr by CO-ADD method; assay type: ADME, cell-based, Erythrocyte; conditions: red blood cells (erythrocytes)
[11] = Hemolytic activity in human RBC assessed as maximal hemolysis at <= 32 ug/ml incubated for 1 hr by CO-ADD method; assay type: cell-based, Erythrocyte; conditions: red blood cells (erythrocytes), dose <=32 µg/ml, read-out: Activity
[12] = system: Enterococcus faecalis; assay: Antibacterial activity against vancomycin-resistant Enterococcus faecalis ATCC 51299 assessed as inhibition of growth visually by CLSI method; assay type: functional
[13] = system: Clostridioides difficile; assay: Antibacterial activity against Clostridioides difficile ATCC 700057 assessed as inhibition of growth visually preincubated for 2 to 4 hrs measured after 48 hrs by CLSI method; assay type: functional; conditions: time hrs <=52
[14] = system: Staphylococcus aureus; assay: Antibacterial activity against methicillin-resistant Staphylococcus aureus NCTC 10442 assessed as inhibition of growth visually by CLSI method; assay type: functional
[15] = system: Staphylococcus aureus; assay: Antimicrobial activity against methicillin resistant Staphylococcus aureus ATCC 43300 assessed as growth inhibition incubated for 18 hrs; assay type: functional
[16] = system: Staphylococcus aureus; assay: Antibacterial activity against vancomycin intermediate susceptibility Staphylococcus aureus Mu50 assessed as inhibition of growth visually by CLSI method; assay type: functional
[17] = system: Staphylococcus aureus; assay: Antibacterial activity against Staphylococcus aureus ATCC 29213 assessed as inhibition of growth visually by CLSI method; assay type: functional
[18] = Hemolytic activity in sheep RBC assessed as hemolysis at 5 microg/ml incubated for 2 hrs by CO-ADD method; assay type: ADME, cell-based, Ovis aries, Erythrocyte; conditions: red blood cells (erythrocytes), at 5 µg/mL, read-out: Activity
[19] = system: Candida albicans; assay: Antifungal activity against Candida albicans ATCC 90028 assessed as growth inhibition incubated for 36 hrs; assay type: functional; conditions: 28A ATCC 90028
[20] = system: Clostridioides difficile; assay: Antibacterial activity against Clostridioides difficile NSW 132 (RT027) assessed as inhibition of growth visually preincubated for 2 to 4 hrs measured after 48 hrs by CLSI method; assay type: functional; conditions: time hrs <=52
[21] = system: Enterococcus faecalis; assay: Antibacterial activity against Enterococcus faecalis ATCC 29212 assessed as inhibition of growth visually by CLSI method; assay type: functional
[22] = system: Cryptococcus neoformans; assay: Antifungal activity against Cryptococcus neoformans H99 ATCC 208821 assessed as growth inhibition incubated for 36 hrs; assay type: functional; conditions: var. grubii H99 ATCC 208821

Compound	MIC [4] [µg/mL]	CC50 at 23 h [6] [µg/mL]	MIC80 [1] [µg/mL]	MIC80 [2] [µg/mL]	hemolysis at 2 h, 50 microg/ml [7] [%]	Emax at 23 h [8] [%]	MIC [9] [µg/mL]	HC50 at 1 h [10] [µg/mL]	hemolysis at 1 h [11] [%]	MIC [12] [µg/mL]	MIC80 [3] [µg/mL]	MIC [13] [µg/mL]	MIC [14] [µg/mL]	MIC80 [15] [µg/mL]	MIC [16] [µg/mL]	MIC [17] [µg/mL]	MIC80 [19] [µg/mL]	MIC [20] [µg/mL]	MIC [21] [µg/mL]	MIC80 [22] [µg/mL]	also measured
COLISTIN	1	–	–	–	–	–	–	–	–	–	–	–	–	–	–	–	–	–	–	–	MIC=>80 [1]: 0.125 µg/mL; MIC=>80 [2]: 0.25 µg/mL; MIC=>80 [3]: 0.25 µg/mL; MIC=>80 [5]: 0.25 µg/mL
CC/C(=C(\c1ccccc1)c1ccc(OCCN(C)C)cc1)c1ccccc1 [TAMOXIFEN]	–	9 (≈ 24.2 µM)	–	–	–	–	–	–	–	–	–	–	–	–	–	–	–	–	–	–	–
CC(C)CCOc1cccc(-c2ccccc2OCc2cn(C[C@@H](CCCCN)NC(=O)[C@@H](CCCNC(=N)N)n3cc(CC4CCCCC4)nn3)nn2)c1.Cl.Cl	2	> 32	8	4	72.1	28	1	> 32	38	8	8	16	2	≤ 0.25	2	2	32	16	2	> 32	MIC80 [5]: > 32 µg/mL; hemolysis at 2 h, 5 microg/ml [18]: 2.6%
CC(C)CCOc1ccccc1-c1ccccc1OCc1cn(C[C@@H](CCCCN)NC(=O)[C@@H](CCCNC(=N)N)n2cc(CC3CCCCC3)nn2)nn1.Cl.Cl	4	> 32	8	16	66.6	14	1	> 32	56	8	16	16	2	≤ 0.25	4	2	32	8	4	> 32	MIC80 [5]: 32 µg/mL; hemolysis at 2 h, 5 microg/ml [18]: 2.1%
CN[C@H](CC(C)C)C(=O)N[C@H]1C(=O)N[C@@H](CC(N)=O)C(=O)N[C@H]2C(=O)N[C@H]3C(=O)N[C@H](C(=O)N[C@H](C(=O)O)c4cc(O)cc(O)c4-c4cc3ccc4O)[C@H](O)c3ccc(c(Cl)c3)Oc3cc2cc(c3O[C@@H]2O[C@H](CO)[C@@H](O)[C@H](O)[C@H]2O[C@H]2C[C@](C)(N)[C@H](O)[C@H](C)O2)Oc2ccc(cc2Cl)[C@H]1O [VANCOMYCIN]	> 8	–	–	–	–	–	–	–	–	> 8	–	1 (≈ 0.69 µM)	–	1 (≈ 0.69 µM)	8 (≈ 5.52 µM)	–	–	0.5 (≈ 0.345 µM)	2 (≈ 1.38 µM)	–	–
CC(C)CCOc1ccc(-c2ccc(OCc3cn(C[C@@H](CCCCN)NC(=O)[C@@H](CCCNC(=N)N)n4cc(CC5CCCCC5)nn4)nn3)cc2)cc1.Cl.Cl	32	> 32	8	32	57.2	25	2	9.8	94	16	8	16	4	≤ 0.25	4	4	1	8	8	> 32	MIC80 [5]: 32 µg/mL; hemolysis at 2 h, 5 microg/ml [18]: 1.4%
CCCCCCCCCCCCCCCC1OC2C3CC(C2O1)C(C(=O)NCCNC(=N)N)C3C(=O)NCCNC(=N)N.Cl.Cl (stereo unspecified)	–	> 50	–	–	–	–	–	–	–	–	–	–	–	–	–	–	–	–	–	–	MIC [15]: 1 µg/mL
CC(C)CCOc1ccc(-c2ccccc2OCc2cn(C[C@@H](CCCCN)NC(=O)[C@@H](CCCNC(=N)N)n3cc(CC4CCCCC4)nn3)nn2)cc1.Cl.Cl	4	> 32	4	4	63	13	1	> 32	41	8	8	16	2	≤ 0.25	4	4	> 32	16	4	> 32	MIC80 [5]: 32 µg/mL; hemolysis at 2 h, 5 microg/ml [18]: 2.7%
OC(Cn1cncn1)(Cn1cncn1)c1ccc(F)cc1F [FLUCONAZOLE]	–	–	–	–	–	–	–	–	–	–	–	–	–	–	–	–	0.125 (≈ 0.408 µM)	–	–	8 (≈ 26.1 µM)	–
CC(C)CCOc1cccc(-c2ccc(OCc3cn(C[C@@H](CCCCN)NC(=O)[C@@H](CCCNC(=N)N)n4cc(CC5CCCCC5)nn4)nn3)cc2)c1.Cl.Cl	16	> 32	32	32	40.8	43	4	> 32	88	16	32	32	4	≤ 0.25	4	4	16	16	4	> 32	MIC80 [5]: > 32 µg/mL; hemolysis at 2 h, 5 microg/ml [18]: 2.1%
CC(C)CCOc1ccc(-c2cccc(OCc3cn(C[C@@H](CCCCN)NC(=O)[C@@H](CCCNC(=N)N)n4cc(CC5CCCCC5)nn4)nn3)c2)cc1.Cl.Cl	32	> 32	8	32	66.5	18	2	> 32	102	8	16	16	8	≤ 0.25	2	4	8	16	4	> 32	MIC80 [5]: 32 µg/mL; hemolysis at 2 h, 5 microg/ml [18]: 2.3%
C[C@@H]1[C@H](O)[C@@H](C)/C=C/C=C/C=C/C=C/C=C/C=C/C=C/[C@H](O[C@@H]2O[C@H](C)[C@@H](O)[C@H](N)[C@@H]2O)C[C@@H]2O[C@](O)(C[C@@H](O)C[C@@H](O)[C@H](O)CC[C@@H](O)C[C@@H](O)CC(=O)O[C@H]1C)C[C@H](O)[C@H]2C(=O)O [AMPHOTERICIN B]	–	–	–	–	–	–	–	–	–	–	–	–	–	–	–	–	1.56 (≈ 1.69 µM)	–	–	1.56 (≈ 1.69 µM)	–
CC(C)(C)c1ccc(CC(N)C(=O)NC(CCCNC(=N)N)C(=O)Nc2cc(NC(=O)C(CCCNC(=N)N)NC(=O)C(N)Cc3ccc(C(C)(C)C)cc3)cc(C(N)=O)c2)cc1 (stereo unspecified)	–	–	–	–	–	–	–	> 100	–	–	–	–	–	–	–	3.9 (≈ 4.48 µM)	–	–	–	–	–
CCCCCCCCCCCC(=O)N(CCCCCCNC(=O)[C@@H](N)CCCCN)CCCCCCNC(=O)[C@@H](N)CCCCN	3.1 (≈ 4.74 µM)	–	–	–	–	–	–	860	–	–	–	–	–	–	–	–	–	–	–	–	MIC [15]: 3.1 µg/mL (≈ 4.74 µM)
